Experimental data from US10226464B2, “Small molecule NF-κB inhibitors” (ImmuneTarget, Inc., priority 2015, dated 2019).

How the values were obtained:
[1] = biological target: c-Rel protein (Homo sapiens (Human), UniProt Q04864); assay: Electrophoretic Mobility Shift Assay (EMSA), Rel/NF-κB DNA binding inhibition; settings: 10 nM c-Rel protein, phosphor-labeled CD28RE oligonucleotide
Description: Electrophoretic Mobility Shift Assay (EMSA)
DNA binding reaction (20 μL) was carried out in 1×DNA Binding Buffer (10 mM Tris, 40 mM NaCl, 1 mM EDTA, 4% glycerol) with 10 nM c-Rel protein and 0.5 ng phosphor-labeled CD28RE oligonucleotide for 10 minutes at room temperature in 96-well plates. Test compounds, in serial dilutions, were added into each well, and further incubated for 15 minutes before loading onto native 5% polyacrylamide gel. Electrophoresis proceeded for 2.5 hours at 160V. Radioactive signals were quantified using Phospho-Imager. IC50 of compounds of example 1 to 75 were determined by quantifying the intensity of Rel/NF-κB inhibition in EMSA using phospho-imager. An example of EMSA data of the present invention is shown for compound 6 in FIG. 2.

[2] = tested on: NF-κB; assay: NF-κB GFP Assay (NFκB/Jurkat/GFP transcriptional reporter cell line); type: cell-based; settings: Homo sapiens; NF-κB/Jurkat/GFP reporter cells, TNF-α 5 ng/ml, 24 hours; read-out: NF-KB GFP IC50
Description: NFκB/Jurkat/GFP transcriptional reporter cell line was obtained from SBI System Biosciences. NF-κB/Jurkat/GFP™ Reporter cells (5×10^5 cells) were plated at a concentration of 1 million cells/ml into each well of a 24-well plate. TNF-α (5 ng/ml) was added. Compounds were added via serial dilutions to corresponding wells. After 24 hours, 100 μl of the cells were transferred to a well of a Costar® UV plate (96 well, No lid, w/ UV Transparent Flat Bottom, Corning, N.Y., Cat#3635) and the intensity of GFP fluorescence was measured (Excitation 485+/−20, Emission 528+/−20) in a Synergy™ HT Multi-Detection Microplate Reader (BioTech, Winooski, Vt.). The intensities of GFP measured were plotted against the […].

c-Rel protein, sequence (Q04864 whole entry): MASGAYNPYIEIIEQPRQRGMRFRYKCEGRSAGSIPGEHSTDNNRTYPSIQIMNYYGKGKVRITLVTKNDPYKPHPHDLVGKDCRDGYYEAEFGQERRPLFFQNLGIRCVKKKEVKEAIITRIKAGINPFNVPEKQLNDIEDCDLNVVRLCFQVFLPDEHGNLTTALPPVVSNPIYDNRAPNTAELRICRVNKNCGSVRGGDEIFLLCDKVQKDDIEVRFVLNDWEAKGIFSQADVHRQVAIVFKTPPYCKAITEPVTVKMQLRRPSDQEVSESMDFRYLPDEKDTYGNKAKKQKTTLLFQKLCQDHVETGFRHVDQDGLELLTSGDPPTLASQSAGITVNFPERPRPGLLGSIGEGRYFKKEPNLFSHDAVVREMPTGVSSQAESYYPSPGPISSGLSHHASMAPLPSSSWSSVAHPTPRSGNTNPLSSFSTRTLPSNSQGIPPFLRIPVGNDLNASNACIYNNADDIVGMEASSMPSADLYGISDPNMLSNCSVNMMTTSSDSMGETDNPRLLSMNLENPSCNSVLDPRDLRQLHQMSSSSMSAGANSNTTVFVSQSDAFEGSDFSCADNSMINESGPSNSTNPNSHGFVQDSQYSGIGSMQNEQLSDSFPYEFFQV

COc1cccc2cc3c(=O)[nH]c(=O)nc-3oc12 [Compound 1, 9-methoxy-2H-chromeno[2,3-d]pyrimidine-2,4(3H)-dione]
IC50 [1]: < 2 µM
IC50 [2]: < 30 µM

CCOc1cccc2cc3c(=O)[nH]c(=O)nc-3oc12 [Compound 2, 9-ethoxy-2H-chromeno[2,3-d]pyrimidine-2,4(3H)-dione]
IC50 [1]: < 2 µM
IC50 [2]: < 30 µM

COc1cc(Cl)cc2cc3c(=O)[nH]c(=O)nc-3oc12 [Compound 3, 7-chloro-9-methoxy-2H-chromeno[2,3-d]pyrimidine-2,4(3H)-dione]
IC50 [1]: < 2 µM
IC50 [2]: < 30 µM

COc1cc(Br)cc2cc3c(=O)[nH]c(=O)nc-3oc12 [Compound 4, 7-bromo-9-methoxy-2H-chromeno[2,3-d]pyrimidine-2,4(3H)-dione]
IC50 [1]: < 2 µM
IC50 [2]: < 30 µM

CCOc1cc(Cl)cc2cc3c(=O)[nH]c(=O)nc-3oc12 [Compound 5]
IC50 [1]: < 2 µM
IC50 [2]: < 30 µM

COc1ccc2cc3c(=O)[nH]c(=O)nc-3oc2c1 [Compound 6, 8-methoxy-2H-chromeno[2,3-d]pyrimidine-2,4(3H)-dione]
IC50 [1]: < 1 µM
IC50 [2]: < 10 µM

COc1cc(Cl)cc2cc3c(=O)[nH]c(=S)nc-3oc12 [Compound 7, 7-chloro-9-methoxy-2-thioxo-2H-chromeno[2,3-d]pyrimidin-4(3H)-one]
IC50 [1]: < 2 µM
IC50 [2]: < 30 µM

COc1ccc2cc3c(=O)[nH]c(=S)nc-3oc2c1 [Compound 8, 8-methoxy-2-thioxo-2H-chromeno[2,3-d]pyrimidin-4(3H)-one]
IC50 [1]: < 0.5 µM
IC50 [2]: < 30 µM

O=c1nc2oc3ccccc3cc-2c(=O)[nH]1 [Compound 9, 2H-chromeno[2,3-d]pyrimidine-2,4(3H)-dione]
IC50 [1]: < 5 µM
IC50 [2]: < 20 µM

COc1ccc2oc3nc(=O)[nH]c(=O)c-3cc2c1 [Compound 10, 7-methoxy-2H-chromeno[2,3-d]pyrimidine-2,4(3H)-dione]
IC50 [1]: < 1 µM
IC50 [2]: < 30 µM

O=c1nc2oc3cc(O)ccc3cc-2c(=O)[nH]1 [Compound 11, 8-hydroxy-2H-chromeno[2,3-d]pyrimidine-2,4(3H)-dione]
IC50 [1]: < 1 µM
IC50 [2]: < 20 µM

Cc1ccc2cc3c(=O)[nH]c(=O)nc-3oc2c1 [Compound 12, 8-methyl-2H-chromeno[2,3-d]pyrimidine-2,4(3H)-dione]
IC50 [1]: < 1 µM
IC50 [2]: 7 µM

CCOc1ccc2cc3c(=O)[nH]c(=O)nc-3oc2c1 [Compound 13, 8-ethoxy-2H-chromeno[2,3-d]pyrimidine-2,4(3H)-dione]
IC50 [1]: < 1 µM
IC50 [2]: 9 µM

COc1cc(OC)c2cc3c(=O)[nH]c(=O)nc-3oc2c1 [Compound 14, 6,8-dimethoxy-2H-chromeno[2,3-d]pyrimidine-2,4(3H)-dione]
IC50 [1]: < 1 µM
IC50 [2]: 8.2 µM

COc1ccc2oc3nc(=S)[nH]c(=O)c-3cc2c1 [Compound 15, 7-methoxy-2-thioxo-2H-chromeno[2,3-d]pyrimidin-4(3H)-one]
IC50 [1]: < 0.5 µM
IC50 [2]: < 30 µM

O=c1[nH]c(=S)nc2oc3cc(O)ccc3cc1-2 [Compound 16, 8-hydroxy-2-thioxo-2H-chromeno[2,3-d]pyrimidin-4(3H)-one]
IC50 [1]: < 0.5 µM
IC50 [2]: < 30 µM

Cc1ccc2cc3c(=O)[nH]c(=S)nc-3oc2c1 [Compound 17, 8-methyl-2-thioxo-2H-chromeno[2,3-d]pyrimidin-4(3H)-one]
IC50 [1]: < 0.5 µM
IC50 [2]: < 30 µM

COc1cc(OC)c2cc3c(=O)[nH]c(=S)nc-3oc2c1 [Compound 18, 6,8-dimethoxy-2-thioxo-2H-chromeno[2,3-d]pyrimidin-4(3H)-one]
IC50 [1]: < 0.5 µM

CCCOc1ccc2cc3c(=O)[nH]c(=O)nc-3oc2c1 [Compound 19, 8-propoxy-2H-chromeno[2,3-d]pyrimidine-2,4(3H)-dione]
IC50 [1]: < 1 µM
IC50 [2]: < 5 µM

CCCOc1cc2oc3nc(=O)[nH]c(=O)c-3cc2cc1Cl [Compound 20, 7-chloro-8-propoxy-2H-chromeno[2,3-d]pyrimidine-2,4(3H)-dione]
IC50 [1]: < 1 µM
IC50 [2]: < 5 µM

CCCCCCOc1ccc2cc3c(=O)[nH]c(=O)nc-3oc2c1 [Compound 21, 8-(n-hexyloxy)-2H-chromeno[2,3-d]pyrimidine-2,4(3H)-dione]
IC50 [1]: < 1 µM
IC50 [2]: < 5 µM

CCOc1ccc2cc3c(=O)[nH]c(=O)nc-3oc2c1Cl [Compound 22, 9-chloro-8-ethoxy-2H-chromeno[2,3-d]pyrimidine-2,4(3H)-dione]
IC50 [1]: < 1 µM
IC50 [2]: < 10 µM

CC(C)COc1ccc2cc3c(=O)[nH]c(=O)nc-3oc2c1 [Compound 23, 8-isobutoxy-2H-chromeno[2,3-d]pyrimidine-2,4(3H)-dione]
IC50 [1]: < 1 µM
IC50 [2]: < 5 µM

CCCCn1c(=O)nc2oc3cc(OCC)ccc3cc-2c1=O [Compound 24, 3-(n-butyl)-8-ethoxy-2H-chromeno[2,3-d]pyrimidine-2,4(3H)-dione]
IC50 [1]: < 1 µM
IC50 [2]: < 30 µM

CCCc1cc2oc3nc(=O)[nH]c(=O)c-3cc2cc1Cl [Compound 25, 7-chloro-8-propyl-2H-chromeno[2,3-d]pyrimidine-2,4(3H)-dione]
IC50 [1]: < 1 µM
IC50 [2]: < 30 µM
